Experimental data: patent US20060074243A1, “Hydroxamic acid and amide compounds and their use as protease inhibitors” (Pharmacia Corporation, priority 2002, published 2006)

Experiments:
Human recombinant MMP-14 = target: T1, Human recombinant MMP-14 (Homo sapiens, UniProt P50281); assay: In vitro MMP inhibition analysis (fluorogenic peptide substrate cleavage), Ki; assay type: biochemical; settings: Table 2
T1 construct: The catalytic domain enzyme was expressed in E. coli inclusion bodies, solubilized in urea; made in house
How it was run: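 Refolded catalytic domain of MMP-14 expressed in E. coli, activated with APMA or trypsin, incubated 1 h at room temperature with 4 μM MCA-peptide substrate in Tris buffer pH 7.5 with CaCl2. Cleavage rate followed by fluorescence (ex 330/em 420 nm). Ki from Morrison-equation fit; substrate at or below Km, so no substrate correction.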

Human recombinant MMP-13 = target: T2, Human recombinant MMP-13 (Homo sapiens, UniProt P45452); assay: as above; assay type: biochemical; settings: Table 2
T2 construct: made in house; host or cells: baculovirus / insect cells
How it was run: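 Baculovirus-expressed full-length MMP-13 proenzyme was purified on heparin-agarose and zinc-chelate columns, then APMA-activated. It cleaved 4 μM MCA/Dpa fluorogenic peptide in 100 mM Tris-HCl, 100 mM NaCl, 10 mM CaCl2, 0.05% Brij-23, pH 7.5, for 1 h at room temperature (ex 330/em 420 nm). Ki came from Morrison-equation fits with substrate ≤Km, uncorrected.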

Row | SMILES | Ki (Human recombinant MMP-14) | Ki (Human recombinant MMP-13)
1 | O=C(NO)C1(S(=O)(=O)c2ccc(-c3cnccn3)cc2)CCOCC1 [Example 71] | 224 nM | 1.73 nM
2 | COCCN1CCC(C(=O)NO)(S(=O)(=O)c2ccc(-c3ccc(OCCN4CCCC4)cc3)cc2)CC1 [Example 72] | 2280 nM | 2.25 nM
3 | O=C(NO)C1(S(=O)(=O)c2ccc(-c3ccc(CCO)cc3)cc2)CCOCC1 [Example 98] | 52.6 nM | 0.147 nM
4 | CC(C)CCc1ccc(-c2ccc(S(=O)(=O)C3(C(=O)NO)CCOCC3)cc2)nc1 [Example 99] | 421 nM | 0.052 nM
5 | COC(C)CCOc1ccc(-c2ccc(S(=O)(=O)C3(C(=O)NO)CCOCC3)cc2)cc1C(F)(F)F (centres unmarked) [Example 100] | > 10000 nM | 9.4 nM
6 | CCCCCc1ccc(-c2ccc(S(=O)(=O)C3(C(=O)NO)CCOCC3)cc2)c(F)c1 [Example 101] | 929 nM | 0.4 nM
7 | COc1ccc(-c2ccc(S(=O)(=O)C3(C(=O)NO)CCOCC3)cc2)cc1F [Example 102] | 11.1 nM | 0.075 nM
8 | CC(C)Cc1ccc(-c2ccc(S(=O)(=O)C3(C(=O)NO)CCOCC3)cc2)nc1 [Example 103] | 342 nM | 0.117 nM
9 | O=C(NO)C1(S(=O)(=O)c2ccc(-c3ccc(-c4ccccc4)cc3)cc2)CCOCC1 [Example 104] | 247 nM | 0.032 nM
10 | CCCCc1nc(-c2ccc(S(=O)(=O)C3(C(=O)NO)CCOCC3)cc2)no1 [Example 105] | 1730 nM | 3.67 nM
11 | CC(C)CCOc1ccc(-c2ccc(S(=O)(=O)C3(C(=O)NO)CCOCC3)cc2)cc1 [Example 108] | 744 nM | 0.199 nM
12 | CCN1CCC(C(=O)NO)(S(=O)(=O)c2ccc(-c3ccc(OCCOC)c(F)c3)cc2)CC1 [Example 110] | 1850 nM | 0.144 nM
13 | CCN1CCC(C(=O)NO)(S(=O)(=O)c2ccc(-c3ccc(OCCOC)cc3)cc2)CC1 [Example 111] | 1790 nM | 0.066 nM
14 | COCCOc1ccc(-c2ccc(S(=O)(=O)C3(C(=O)NO)CCN(C4CC4)CC3)cc2)cc1F [Example 112] | 681 nM | 0.058 nM
15 | COCCOc1ccc(-c2ccc(S(=O)(=O)C3(C(=O)NO)CCN(C4CC4)CC3)cc2)cc1 [Example 113] | 499 nM | 0.031 nM
16 | COCCOc1ccc(-c2ccc(S(=O)(=O)C3(C(=O)NO)CCN(CCOC)CC3)cc2)cc1F [Example 114] | 585 nM | 0.042 nM
17 | COCCOc1ccc(-c2ccc(S(=O)(=O)C3(C(=O)NO)CCN(CCOC)CC3)cc2)cc1 [Example 115] | 530 nM | 0.025 nM
18 | CCOCCOc1ccc(-c2ccc(S(=O)(=O)C3(C(=O)NO)CCN(CC)CC3)cc2)cc1 [Example 116] | 2930 nM | 0.05 nM
19 | CCOCCOc1ccc(-c2ccc(S(=O)(=O)C3(C(=O)NO)CCN(CCOC)CC3)cc2)cc1 [Example 117] | 1110 nM | 0.037 nM
